The text below walks through data of patent US6168939A, “Endopeptidase produced by Lactobacillus helveticus” (priority 1995, dated 2001).

Entries after “also recorded” stand apart in the source; their conditions may differ. Where two headings read alike, the source gives them in different places. Numbered stars: 1 amine (or outer) side, 2 acyl side, 3 side chain; on linkers, the order of the positions; unused ones are H or OH. Ends that are not written are not given here. Peptide text beside a SMILES is read from it. * marks the point of attachment. pNA = O=[N+]([O-])c1ccc(N*)cc1; Suc = O=C(CCC(=O)[*:2])[*:1]; MeOSuc = COC(=O)CCC(=O)*

Holding throughout (assay type): biochemical
Experiment [1] addresses T1, endopeptidase produced by Lactobacillus helveticus (Lactobacillus helveticus, UniProt Q6UP05).
T1 construct: N-terminus […]
T1 sequence (Q6UP05 1-643): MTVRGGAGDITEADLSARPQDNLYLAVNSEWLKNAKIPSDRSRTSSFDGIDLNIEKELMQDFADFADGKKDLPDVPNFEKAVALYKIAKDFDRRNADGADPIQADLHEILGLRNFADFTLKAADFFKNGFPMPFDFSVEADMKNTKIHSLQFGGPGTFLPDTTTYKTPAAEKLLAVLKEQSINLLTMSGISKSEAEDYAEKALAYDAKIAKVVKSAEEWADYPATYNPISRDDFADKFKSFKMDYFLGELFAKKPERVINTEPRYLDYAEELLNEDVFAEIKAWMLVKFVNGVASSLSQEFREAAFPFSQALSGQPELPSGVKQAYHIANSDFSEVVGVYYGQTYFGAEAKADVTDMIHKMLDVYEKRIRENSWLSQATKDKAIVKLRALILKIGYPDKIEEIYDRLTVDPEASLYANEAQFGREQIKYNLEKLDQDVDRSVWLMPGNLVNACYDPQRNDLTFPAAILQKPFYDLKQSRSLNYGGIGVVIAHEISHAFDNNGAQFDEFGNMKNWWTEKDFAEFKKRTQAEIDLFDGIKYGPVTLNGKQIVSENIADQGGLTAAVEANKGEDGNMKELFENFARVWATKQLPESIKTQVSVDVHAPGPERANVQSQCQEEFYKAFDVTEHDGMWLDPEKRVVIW
As for the experimental part: (§1) The influences of enzyme inhibitors on the-activity of the endopeptidase of the present invention was determined. The purified endopeptidase (0.5 μg protein/ml) in 40 mM HEPES, pH7.0, was incubated for 30 min. at 4° C. with 0.001 to 2.0 mM enzyme inhibitors. After pre-incubating the enzyme mixture for 5 min. at 30° C., 1 mM Tyr-Gly-Gly-Phe-Met (SEQ ID NO: 2) was added to start the reaction and the mixture was incubated for 20 min. at 30° C. The reaction was stopped by 10% acetic acid.
The enzyme activity was determined by reversed phase chromatography.

For experiment [2], the target named is T1, endopeptidase produced by Lactobacillus helveticus. The experiment can be described thus: Influence of metal ions on endopeptidase activity. As to conditions: method according to Test example 7. As for the experimental part:
as §1
The influences of metal ions to the activity of the endopeptidase of the present invention was determined similarly by the method according to Test example 7. The enzyme activity was inhibited by Cu^2+, Zn^2+ and Fe^2+.

Experiment [3] shares this target. The experiment can be described thus: Substrate specificity: hydrolysis of substrates by the endopeptidase. The settings on record: 5.0 hrs. The arrangement: key: + represents that a substrate was hydrolyzed; - represents that a substrate was not hydrolyzed. As for the experimental part: The substrate specificity of the endopeptidase of the present invention was determined. In 200 μl of 2 to 5 mM substrate in 50 mM HEPES buffer, pH 7.0, 10 μl of the endopeptidase solution of the present invention in 50 mM HEPES buffer, pH 7.0, at five μg/ml was added and incubated at 30° C. for 5.0 hrs. Then, the reaction mixture was applied to reversed phase chromatography and eluted using linear increase of concentration of acetonitrile in 0.1% trifluoroacetic acid from zero to 60%. The hydrolysis was determined from the decrease of the peak area of the substrate and/or the appearance of a new peak(s) at 214 nm on the chromatogram.

The mark [4] stands for this setting: 0.001 to 2.0 mM inhibitor, 30 min. at 4° C., 1 mM Tyr-Gly-Gly-Phe-Met, pH 7.0, 30° C.
[5] abbreviates: 2 to 5 mM substrate, 50 mM HEPES pH 7.0, 30° C.

With `c1cnc2c(c1)ccc1cccnc12` [1,10-phenanthroline], the “inhibition of endopeptidase activity by enzyme inhibitors” value (“inhibition … by enzyme inhibitors” below) in experiment [1] (setting [4]) is reported as “inhibited; also recorded: inhibition”.
As to `[Cu+2]` [Cu^2+], in experiment [2], the “inhibition of endopeptidase activity by metal ions” value (shortened to “inhibition … by metal ions”) is given as “inhibited”.
Regarding `O=C(O)CN(CCN(CC(=O)O)CC(=O)O)CC(=O)O` [EDTA, ethylenediaminetetraacetic acid], the “inhibition … by enzyme inhibitors” value in experiment [1] (pH 7) was “inhibited; also recorded: inhibition”.
For `[Fe+2]` [Fe^2+], the “inhibition … by metal ions” value in experiment [2] was “inhibited”.
Consider `NCCCC[C@H](N)C(=O)Nc1ccc([N+](=O)[O-])cc1` [Lys-pNA], for which the Hydrolysis entry in experiment [3] (setting [5]) is reported as “-”.
Turning to `COC(=O)CCC(=O)N[C@@H](CCCNC(=N)N)C(=O)N1CCC[C@H]1C(=O)N[C@@H](Cc1ccc(O)cc1)C(=O)Nc1ccc([N+](=O)[O-])cc1` [MeO-Suc-Arg-Pro-Tyr-pNA] (MeOSuc-Arg-Pro-Tyr-pNA), the Hydrolysis result in experiment [3] (setting [5]) is on record as “-”; in experiment [3] (substrate + LAP (leucine aminopeptidase), pH 7.0, 30° C.), “+”.
With `CSCC[C@H](NC(=O)[C@H](Cc1ccccc1)NC(=O)CNC(=O)CNC(=O)[C@@H](N)Cc1ccc(O)cc1)C(=O)O` [Met-Enkephalin], in experiment [3] (setting [5]), the Hydrolysis result is “+”.
`O=C(Nc1ccc([N+](=O)[O-])cc1)[C@@H]1CCCN1` [Pro-pNA]: the Hydrolysis entry in experiment [3] (setting [5]) is “-”.
The same measure, in the same setting: for `CSCC[C@H](NC(=O)[C@H](CC(C)C)NC(=O)CNC(=O)[C@H](Cc1ccccc1)NC(=O)[C@H](Cc1ccccc1)NC(=O)[C@H](CCC(N)=O)NC(=O)[C@H](CCC(N)=O)NC(=O)[C@@H]1CCCN1C(=O)[C@H](CCCCN)NC(=O)[C@@H]1CCCN1C(=O)[C@@H](N)CCCNC(=N)N)C(N)=O` [Substance P] the value was “+”; for `CC(C)C[C@H](NC(=O)[C@@H]1CCCN1C(=O)[C@H](C)NC(=O)[C@H](C)NC(=O)CCC(=O)O)C(=O)Nc1ccc([N+](=O)[O-])cc1` [Suc-Ala-Ala-Pro-Leu-pNA] (Suc-AAPL-pNA), “-”.
As to `O=C(O)CCC(=O)N[C@@H](Cc1ccccc1)C(=O)Nc1ccc([N+](=O)[O-])cc1` [Suc-Phe-pNA], the Hydrolysis result in experiment [3] (setting [5]) was “-”.
For `[Zn+2]` [Zn^2+], the “inhibition … by metal ions” value in experiment [2] was “inhibited”.
For `O=C(O)CI` [iodoacetic acid], the “inhibition … by enzyme inhibitors” value in experiment [1] (pH 7) was “no inhibition”.
For the molecule `O=S(=O)(O)c1cc[c]([Hg][Cl])cc1` [p-CMBS, p-chloromercuribenzenesulfonic acid], in experiment [1] (setting [4]), the “inhibition … by enzyme inhibitors” value is recorded as “inhibited; also recorded: inhibition”.
As for `O=S(=O)(F)Cc1ccccc1` [phenylmethylsulfonyl fluoride], the “inhibition … by enzyme inhibitors” value in experiment [1] (setting [4]) is on record as “no inhibition”.
As to Ala-Ala-Ala-Ala (AAAA), the Hydrolysis entry in experiment [3] (setting [5]) was “+”.
Turning to Ala-Ala-Ala-Ala-Ala, in experiment [3] (setting [5]), the Hydrolysis result is listed as “+”.
With Ala-Ala-Ala-Ala-Ala-Ala, the Hydrolysis result in experiment [3] (setting [5]) is recorded as “+”.
On the same count and under the same terms, for Ala-Pro-pNA the value was “-”.
For “Angiotensin (DRVYIHPFHL; Angiotensin-1; UniProt P01019 25-34, looked up)”, the Hydrolysis result in experiment [3] (setting [5]) is on record as “+”.
Same read-out and setting: for Bzl-Cys-pNA the value was “-”; for Dynorphin A, “+”; for Gly-Pro-Arg-Pro (GPRP), “-”.
The same measure, in the same setting: in the case of Gly-Pro-Gly-Gly (GPGG) it was “-”; in that of Insulin β-chain, “+”.
In the case of Leu-Gly-Gly, the Hydrolysis entry in experiment [3] (setting [5]) is “-”.
Regarding Leu-Leu, the Hydrolysis entry in experiment [3] (setting [5]) was “-”.
Consider Leu-Leu-Leu, for which, in experiment [3] (setting [5]), the Hydrolysis result is “+”.
As for Met-Gly-Gly, the Hydrolysis result in experiment [3] (setting [5]) is reported as “-”.
Neurotensin: the Hydrolysis entry in experiment [3] (setting [5]) is reported as “+”.
The same measure, in the same setting: in the case of “Parathyroid hormone, human, f1-34: human parathyroid hormone fragment 1-34, 34 amino acid residues” it was “+”.
On the same count and under the same terms, in the case of “Parathyroid hormone, human, f1-38: human parathyroid hormone fragment 1-38, 38 amino acid residues (SVSEIQLMHNLGKHLNSMERVEWLRKKLQDVHNFVALG; Parathyroid hormone; UniProt P01270 32-69, looked up, fragment)” it was “-”.
As to “Parathyroid hormone, human, f1-44: human parathyroid hormone fragment 1-44, 44 amino acid residues (SVSEIQLMHNLGKHLNSMERVEWLRKKLQDVHNFVALGAPLAPR; Parathyroid hormone; UniProt P01270 32-75, looked up, fragment)”, in experiment [3] (setting [5]), the Hydrolysis result is given as “-”.
Same read-out and setting: in the case of “Parathyroid hormone, human, f13-34: human parathyroid hormone fragment 13-34, 22 amino acid residues (KHLNSMERVEWLRKKLQDVHNF; Parathyroid hormone; UniProt P01270 44-65, looked up, fragment)” it was “+”; in that of Phe-Met, “-”; in that of Phe-Val, “-”.
With Pro-Ala, the Hydrolysis result in experiment [3] (setting [5]) is “-”.
Still for that read-out and setting: for Pro-Gly-Gly the value was “-”; for Pro-Gly-Lys-Ala-Arg (PGKAR), “-”; for Pro-Lys-Gly-Gly (PKGG), “-”.
Turning to RPPGFSPFR [Bradykinin], in experiment [3] (setting [5]), the Hydrolysis result is “+”.
Regarding Tyr-Gly-Gly, in experiment [3] (setting [5]), the Hydrolysis result was “-”.
On to Z-Phe-Ala, for which the Hydrolysis result in experiment [3] (setting [5]) is given as “-”.
Still for that read-out and setting: in the case of “β-Casein, f108-113: β-Casein fragment 108-113, 6 amino acid residues (EMPFPK; UniProt P02666 123-128, looked up, fragment)” it was “+”.
Turning to “β-Casein, f203-209: β-Casein fragment 203-209, 7 amino acid residues (GPFPIIV; UniProt P02666 218-224, looked up, fragment)”, the Hydrolysis entry in experiment [3] (setting [5]) is listed as “+”.
For the molecule β-Casomorphin, the Hydrolysis entry in experiment [3] (setting [5]) is recorded as “-”.
Take κ-Casein: casein protein substrate: the Hydrolysis result in experiment [3] (setting [5]) is reported as “-”.

B1: α51 -Casein: casein protein substrate (probably αs1-casein) (protein, UniProt P02662 16-214, looked up)
Alpha-S1-casein: RPKHPIKHQGLPQEVLNENLLRFFVAPFPEVFGKEKVNELSKDIGSESTEDQAMEDIKQMEAESISSSEEIVPNSVEQKHIQKEDVPSERYLGYLEQLLRLKKYKVPQLEIVPNSAEERLHSMKEGIHAQQKEPMIGVNQELAYFYPELFRQFYQLDAYPSGAWYYVPLGTQYTDAPSFSDIPNPIGSENSEKTTMPLW
Regarding B1, the Hydrolysis entry in experiment [3] (setting [5]) was “-”.

B2: β-Casein: casein protein substrate (protein, UniProt P02666 16-224, looked up)
Beta-casein: RELEELNVPGEIVESLSSSEESITRINKKIEKFQSEEQQQTEDELQDKIHPFAQTQSLVYPFPGPIPNSLPQNIPPLTQTPVVVPPFLQPEVMGVSKVKEAMAPKHKEMPFPKYPVEPFTESQSLTLTDVENLHLPLPLLQSWMHQPHQPLPPTVMFPPQSVLSLSQSKVLPVPQKAVPYPQRDMPIQAFLLYQEPVLGPVRGPFPIIV
Turning to B2, the Hydrolysis entry in experiment [3] (setting [5]) is “-”.
